Data published in US20190208782A1, “PROCESSING COMPOSITION FOR C[…] WEEDS” (Arch Chemicals, Inc., priority 2018, published 2019).
Values after ≈ are worked out from the molar mass of the structure shown.

Key:
Format in all cases: in vivo
Eurasian watermilfoil [1] = test: Fluroxypyr potassium salt formulations vs ester on Eurasian watermilfoil under mesocosm conditions (Example 4); details: 200 ug/L, 24 h exposure, 4 WAT
Procedure: Eurasian watermilfoil was obtained from cultures. Two apical tips approximately 15 cm long were planted into each of 204, plastic containers (940 mL). The containers were filled with potting soil and amended with 2 g/L/soil Osmocote® fertilizer 19-6-12. Four containers of potted Eurasian watermilfoil were placed into each of 51 mesocosm tanks. Tanks were filled to a volume of 257 L and plants allowed to grow approximately 2-3 weeks prior to herbicide treatments, or until plants were at or near the water surface. Pre-treatment biomass was harvested from three tanks set up with pots for this purpose. Biomass was harvested by collecting aboveground biomass of plants from all of the pots in each of the pretreatment tanks. Plant material was placed into individually labeled paper bags, dried in a force air oven at 50 C for at least 48 h, and then weighed to assess biomass,
After pre-treatment data collection, liquid herbicides were applied as a concentrated aqueous formulation using the rates and products outlined in Table 6. […]
Four weeks after treatment (WAT), living plants were, harvested, sorted to aboveground biomass (if any), dried in a forced air oven at 50 C for at least 48 h, and weighed for biomass determination. Differences between treatments were analyzed using ANOVA with treatment means separated using a Fisher's Protected LSD test at a p≤0.05 significance level.

[2] = tested on: Elodea (Elodea canadensis); test: Native plant selectivity screening in aquaria, elodea (Example 6); details: static exposure; for Elodea biomass vs untreated reference plants: four WAT
Procedure: Materials and Methods: The study was conducted in an indoor aquaria facility. Elodea (Elodea canadensis) was obtained from cultures. Two apical tips approximately 10 cm long were planted into each of 48, plastic containers (16 oz. plastic cups). The containers were filled with potting soil and amended with 2 g/L Osmocote® fertilizer 19-6-12. A layer of sand was placed on top of the sediment in each container to prevent sediment re-suspension in the aquaria. Two containers of potted elodea were placed into each of 24 aquaria measuring 11.5 in×11.5 in×24 in. Additionally, sago pondweed (Stuckenia pectinata) tubers were obtained. The tubers were floated in shallow containers filled with water until new sprouts began to grow.
Once sprouted, two tubers were planted into 16 oz containers in a similar fashion as elodea. Two containers of potted sago pondweed were placed into each of the 24 aquaria, so that each aquarium had 4 potted plants (2 pots of each species). Each aquarium was filled to a volume of 45 L and plants allowed to grow approximately 3-4 weeks prior to herbicide treatments or until plants were at or near the water surface. Supplemental lighting was provided using Agrobrite growth lamps on a 12:12 light:dark cycle. After the plants reached the desired level of growth, a liquid formulation of fluroxypyr ester was applied as a concentrated aqueous solution at the concentrations outlined in Table 9. An untreated reference was also included for comparison purposes. All herbicide applications were made using a static exposure and replicated 3 times. […] Water was added to the aquaria as needed to maintain the desired 45 L volume of water.
At four weeks after treatment (WAT), plants were, harvested, sorted to aboveground biomass, dried in a forced air oven at 50 C for at least 48 h, and weighed for biomass determination (g/DW/aquaria). Differences between treatments were analyzed using an ANOVA, and if treatment differences were detected; means were separated using a Tukey's All-Pairwise comparison test. All analyses were conducted at a p≤0.05 significance level. Additionally, regression models were fit to elodea biomass data in order to estimate the EC50 concentration under the current experimental design.

Eurasian watermilfoil [3] = test: Efficacy of fluroxypyr herbicide on Eurasian watermilfoil under mesocosm conditions (Example 1); details: 24 h exposure
Source text: Materials and Methods: Eurasian watermilfoil was obtained from cultures. Two apical tips approximately 15 cm long were planted into each of 108, plastic containers. The containers were filled with Black Kow potting soil and amended with 2 g/L Osmocote fertilizer 19-6-12. Four containers of potted Eurasian watermilfoil were placed into each of 27 mesocosm tanks. Mesocosm tanks were filled to a volume of 276 L (48 cm depth) and plants allowed to grow approximately 2-3 weeks prior to herbicide treatments or until plants were at or near the water surface. Pre-treatment biomass was harvested from an extra mesocosm tank set up with potted Eurasian watermilfoil for this purpose. Biomass was harvested by collecting aboveground biomass of plants in the tank. Plant material were dried at 70 C for at least 48 h and weighed to assess biomass.
After pre-treatment data collection, concentrated liquid herbicides were applied as the formulations and rates outlined in Table 1. An untreated reference was also included for comparison purposes. All herbicide applications were made using a 24 h exposure and replicated 3 times. After the exposure time was reached, each mesocosm tank was drained and refilled with fresh water to remove any herbicide residue remaining in the water column.
Each week, tanks were rated for percent control on a 0-100% scale (0%=no control; 100%=complete plant mortality). Four weeks after treatment (WAT), living plants were harvested, sorted to aboveground biomass, dried, and weighed for biomass determination. Differences between treatments were analyzed using an ANOVA test with means separated using a Fisher's Protected LSD test. Fluroxypyr data were fitted to an exponential decay regression model in order to estimate the EC50 value for fluroxypyr use on Eurasian watermilfoil.

## CCCCCCC(C)OC(=O)COc1nc(F)c(Cl)c(N)c1Cl (stereo not drawn) [Fluroxypyr ester, [(4-amino-3,5-dichloro-6-fluoro-2-pyridinyl)oxy]acetic acid, 1-methylheptyl ester]
Eurasian watermilfoil [1]
  Eurasian watermilfoil biomass reduction: 98%
[2]; 400 ug/L or higher
  Elodea biomass vs untreated reference plants: reduced
[2]; 50, 100, and 200 ug/L
  Elodea biomass vs untreated reference plants: similar
[2]; Elodea canadensis, 4 WAT, aquaria, read-out: EC50 for elodea (biomass, regression model)
  EC50: 0.356 µg/mL (≈ 0.969 µM)
[2]; within one WAT, transient in the lower concentration treatments
  herbicide symptoms on elodea: epinastic twisting and bending
Eurasian watermilfoil [3]; 50 ug/L, 1 WAT
  Visual control ratings of Eurasian watermilfoil: 30%
Eurasian watermilfoil [3]; 50 ug/L, 2 WAT
  Visual control ratings of Eurasian watermilfoil: 60%
Eurasian watermilfoil [3]; 50 ug/L, 3 WAT
  Visual control ratings of Eurasian watermilfoil: 50%
Eurasian watermilfoil [3]; 50 ug/L, 4 WAT
  Visual control ratings of Eurasian watermilfoil: 45%
  biomass reduction of Eurasian watermilfoil: 76%
Eurasian watermilfoil [3]; 100 ug/L, 1 WAT
  Visual control ratings of Eurasian watermilfoil: 60%
Eurasian watermilfoil [3]; 100 ug/L, 2 WAT
  Visual control ratings of Eurasian watermilfoil: 90%
Eurasian watermilfoil [3]; 100 ug/L, 3 WAT
  Visual control ratings of Eurasian watermilfoil: 90%
Eurasian watermilfoil [3]; 100 ug/L, 4 WAT
  Visual control ratings of Eurasian watermilfoil: 95%
  biomass reduction of Eurasian watermilfoil: 99%
Eurasian watermilfoil [3]; 200 ug/L, 1 WAT
  Visual control ratings of Eurasian watermilfoil: 60%
Eurasian watermilfoil [3]; 200 ug/L, 2 WAT
  Visual control ratings of Eurasian watermilfoil: 100%
Eurasian watermilfoil [3]; 200 ug/L, 3 WAT
  Visual control ratings of Eurasian watermilfoil: 100%
Eurasian watermilfoil [3]; 200 ug/L, 4 WAT
  Visual control ratings of Eurasian watermilfoil: 100%
Eurasian watermilfoil [3]; 400 ug/L, 1 WAT
  Visual control ratings of Eurasian watermilfoil: 70%
Eurasian watermilfoil [3]; 400 ug/L, 2 WAT
  Visual control ratings of Eurasian watermilfoil: 100%
Eurasian watermilfoil [3]; 400 ug/L, 3 WAT
  Visual control ratings of Eurasian watermilfoil: 100%
Eurasian watermilfoil [3]; 400 ug/L, 4 WAT
  Visual control ratings of Eurasian watermilfoil: 100%
Eurasian watermilfoil [3]; 800 ug/L, 1 WAT
  Visual control ratings of Eurasian watermilfoil: 70%
Eurasian watermilfoil [3]; 800 ug/L, 2 WAT
  Visual control ratings of Eurasian watermilfoil: 100%
Eurasian watermilfoil [3]; 800 ug/L, 3 WAT
  Visual control ratings of Eurasian watermilfoil: 100%
Eurasian watermilfoil [3]; 800 ug/L, 4 WAT
  Visual control ratings of Eurasian watermilfoil: 100%
Eurasian watermilfoil [3]; 1600 ug/L, 1 WAT
  Visual control ratings of Eurasian watermilfoil: 80%
Eurasian watermilfoil [3]; 1600 ug/L, 2 WAT
  Visual control ratings of Eurasian watermilfoil: 100%
Eurasian watermilfoil [3]; 1600 ug/L, 3 WAT
  Visual control ratings of Eurasian watermilfoil: 100%
Eurasian watermilfoil [3]; 1600 ug/L, 4 WAT
  Visual control ratings of Eurasian watermilfoil: 100%
Eurasian watermilfoil [3]; 3200 ug/L, 1 WAT
  Visual control ratings of Eurasian watermilfoil: 80%
Eurasian watermilfoil [3]; 3200 ug/L, 2 WAT
  Visual control ratings of Eurasian watermilfoil: 100%
Eurasian watermilfoil [3]; 3200 ug/L, 3 WAT
  Visual control ratings of Eurasian watermilfoil: 100%
Eurasian watermilfoil [3]; 3200 ug/L, 4 WAT
  Visual control ratings of Eurasian watermilfoil: 100%
Eurasian watermilfoil [3]; 4 WAT, mesocosm, read-out: EC50 for Eurasian watermilfoil (biomass, exponential decay regression model)
  EC50: 0.0088 µg/mL (≈ 0.024 µM)
